From patent US7687473B2, “5-amino-4-imidazolecarboxamide riboside and its nucleobase as potentiators of antifolate transport and metabolism” (Health Research, Inc., priority 2005, dated 2010)

Assays:
CCRF-CEM cells [1] = experiment: [3H]MTX uptake (initial velocity and 30 min accumulation) in CCRF-CEM cells; assay type: cell-based, human; details: for Potentiation of [3H]MTX uptake at 30 min: compound at 0.5 mM, 10 min pre-incubation with TMTX
Protocol: Quantitation of folate and antifolate uptake. The method is essentially as follows. Briefly, logarithmically growing (3-5×10^5/ml) CCRF-CEM cells were harvested at room temperature by centrifugation at 1000×g for 5 min. After washing with the appropriate medium, cells were suspended at ≈2×10^7 cells/ml for use in transport studies. […] Anion-free MHS contains 250 mM sucrose and 20 mM HEPES, titrated to pH 7.4 with MgO. […] Uptake was measured as a function of time for 30 min (for rate and extent measurements) or over 5 min (studies requiring initial velocities). […] Uptake was terminated by diluting 100 μL samples into 1 ml of iced 0.9% NaCl. […] The supernatant was aspirated. The cell pellet was washed once with 1 ml iced 0.9% NaCl and centrifuged as above. The washed pellet was solubilized in 1 ml of 0.3% Triton X-100 by incubation for 60 min at 37° C. The solubilized pellet was transferred to a scintillation vial, 10 ml of Liquiscint (National Diagnostics, Atlanta, Ga.) was added and radioactivity was quantitated in a Beckman Model LS6500 liquid scintillation counter. Separate samples at the longest incubation time used in a particular experiment were harvested for HPLC analysis of intracellular contents as above, except that after the second wash the pellets were extracted with 1 ml boiling 0.1 M Na-phosphate, pH 5.5. The extract was clarified by centrifugation and the supernatant was filtered through an MPS-1 filter unit (Amicon) prior to HPLC analysis.

CCRF-CEM cells [2] = experiment: Accumulation of DDATHF polyglutamates in CCRF-CEM cells; assay type: cell-based, human; details: for DDATHF-Glun, N = 1 / DDATHF-Glun, N = 2 / DDATHF-Glun, N = 3 / DDATHF-Glun, N = 4 / DDATHF-Glun, N = 5 / DDATHF-Glun, N = 6 / DDATHF-Glun, Total / DDATHF-Glun, Total N ≧ 3: 4 hr, 1 μM [3H]DDATHF
Protocol: At the end of the exposure cells were rapidly chilled to 4 degrees C., harvested by centrifugation at 1000×g for 5 min, washed twice with iced 0.9% NaCl by centrifugation in the same manner. One mL of boiling 50 mM Na-phosphate, pH 5.5 was added, the pellet was triturated and the sample boiled for 5 min. The sample was rapidly cooled to 4 degrees C. Debris was removed by centrifugation as above. The supernatant was further clarified by centrifugation through an Amicon MPS-1 filter unit. […] A suitable volume was injected onto a reversed-phase HPLC column (C18) and eluted with a gradient of from 4-14% acetonitrile over about 43 min. One min fractions were collected and, after addition of 10 ml scintillation fluid, were quantitated by liquid scintillation counting. […]

[3] = molecular target: T1, reduced folate carrier (RFC) (Homo sapiens, UniProt P41440); experiment: Inhibition of initial velocity of [3H]MTX influx by competitors; assay type: cell-based; details: IC50, inhibition of initial velocity of [3H]MTX influx
T1 construct: endogenous in cells; host or cells: CCRF-CEM (parental)
T1 sequence (P41440 1-591): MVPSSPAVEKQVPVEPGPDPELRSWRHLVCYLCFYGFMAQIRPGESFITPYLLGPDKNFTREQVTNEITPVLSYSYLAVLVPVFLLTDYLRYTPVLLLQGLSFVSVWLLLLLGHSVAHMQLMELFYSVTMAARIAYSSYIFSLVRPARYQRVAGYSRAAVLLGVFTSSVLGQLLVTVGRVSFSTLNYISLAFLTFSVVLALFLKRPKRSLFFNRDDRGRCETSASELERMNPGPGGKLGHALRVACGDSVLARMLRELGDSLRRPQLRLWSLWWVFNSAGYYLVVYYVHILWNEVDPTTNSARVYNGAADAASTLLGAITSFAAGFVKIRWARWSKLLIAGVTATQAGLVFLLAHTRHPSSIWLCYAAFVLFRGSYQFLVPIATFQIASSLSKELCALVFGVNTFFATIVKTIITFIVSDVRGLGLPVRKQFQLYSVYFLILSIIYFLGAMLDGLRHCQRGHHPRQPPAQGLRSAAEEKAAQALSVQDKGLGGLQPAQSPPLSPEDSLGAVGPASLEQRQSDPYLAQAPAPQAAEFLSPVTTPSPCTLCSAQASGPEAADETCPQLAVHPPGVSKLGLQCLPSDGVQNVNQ
Protocol: Duplicate samples were removed at 5 min and processed as described above.
Inhibition of the vi of uptake was measured after pre-incubation of CCRF-CEM cells either with TMTX alone (measuring inhibition at the RFC) or with TMTX+Z (measuring inhibition during Z potentiation). […] All studies were carried out in standard transport medium. Inhibitory potency was measured in two series of experiments and AMT was included in each series as an internal control. Values are average±range of two determinations. […] Values are average±range for duplicate determinations.

[4] = 1 mM, 30 min incubation, TMTX present, Z absent

In the case of `Nc1nc2c(ncn2[C@H]2C[C@H](O)[C@@H](CO)O2)c(=O)[nH]1` [deoxyguanosine], the “Potentiation of [3H]MTX uptake at 30 min” value (CCRF-CEM cells [1]) is reported as “do not potentiate”.

For `Nc1ncnc2c1ncn2[C@H]1C[C@H](O)[C@@H](CO)O1` [deoxyadenosine], the “Potentiation of [3H]MTX uptake at 30 min” value (CCRF-CEM cells [1]) was “do not potentiate”.

In the case of `NC(=O)c1nc[nH]c1N` [Z-base, 5-amino-4-imidazolecarboxamide], the “Potentiation of [3H]MTX uptake at 30 min” value (CCRF-CEM cells [1]) is reported as “potentiates”.

In the case of `CCCC(=O)Nc1ncnc2c1ncn2[C@@H]1O[C@@H]2COP(=O)(O)O[C@H]2[C@H]1OC(=O)CCC` [dibutyryl-cAMP], the “30 min accumulation of [3H]MTX compared to TMTX alone” value (CCRF-CEM cells [1]; [4]) is reported as “lower 30 min accumulation” and the “Initial velocity of [3H]MTX uptake compared to TMTX alone” value (CCRF-CEM cells [1]; [4]) is reported as “reduced initial velocity”.

`Cc1cn([C@H]2C[C@H](O)[C@@H](CO)O2)c(=O)[nH]c1=O` [thymidine] was tested, and the “Potentiation of [3H]MTX uptake at 30 min” value (CCRF-CEM cells [1]) was “do not potentiate”.

With `CSCC[C@H](N)C(=O)O` [methionine] the “Ability to potentiate [3H]MTX uptake” value (CCRF-CEM cells [1]) was “unable to potentiate”.

With `Nc1nc2nc[nH]c2c(=O)[nH]1` [guanine] the “Potentiation of [3H]MTX uptake at 30 min” value (CCRF-CEM cells [1]) was “do not potentiate”.

In the case of `O=CO` [formate], the “Ability to potentiate [3H]MTX uptake” value (CCRF-CEM cells [1]) is reported as “unable to potentiate”.

In the case of `OC[C@H]1O[C@@H](n2cnc3c(O)ncnc32)C[C@@H]1O` [deoxyinosine], the “Potentiation of [3H]MTX uptake at 30 min” value (CCRF-CEM cells [1]) is reported as “do not potentiate”.

`Nc1nc2c(c(=O)[nH]1)CC(CCc1ccc(C(=O)N[C@@H](CCC(=O)O)C(=O)O)cc1)CN2` (stereo partly shown) [DDATHF, 5,10-dideazatetrahydrofolate] was tested, and the “Effect of Z on DDATHF uptake” value (CCRF-CEM cells [2]; 30 min incubation) was “no effect of Z was observed”, the “Increase of total drug accumulation by Z” value (CCRF-CEM cells [2]; 4 hr incubation with 1 μM [3H]DDATHF) was 11% and the “DDATHF-Glun, N = 1” value (CCRF-CEM cells [2]; +Z) was 17.5 ± 1.3 pmol/10^7 cells. For the same compound, the “DDATHF-Glun, N = 2” value (CCRF-CEM cells [2]; +Z) was 5.9 ± 0.1 pmol/10^7 cells, the “DDATHF-Glun, N = 3” value (CCRF-CEM cells [2]; +Z) was 10.1 ± 0.1 pmol/10^7 cells and the “DDATHF-Glun, N = 4” value (CCRF-CEM cells [2]; +Z) was 15.2 ± 0.8 pmol/10^7 cells. For the same compound, the “DDATHF-Glun, N = 5” value (CCRF-CEM cells [2]; +Z) was 29.8 ± 0.3 pmol/10^7 cells, the “DDATHF-Glun, N = 6” value (CCRF-CEM cells [2]; +Z) was 33.0 ± 2.3 pmol/10^7 cells and the “DDATHF-Glun, Total” value (CCRF-CEM cells [2]; +Z) was 111.3 pmol/10^7 cells. For the same compound, the “DDATHF-Glun, Total N ≧ 3” value (CCRF-CEM cells [2]; +Z) was 88.0 pmol/10^7 cells, the “DDATHF-Glun, N = 1” value (CCRF-CEM cells [2]; −Z) was 14.8 ± 0.8 pmol/10^7 cells and the “DDATHF-Glun, N = 2” value (CCRF-CEM cells [2]; −Z) was 4.9 ± 0.8 pmol/10^7 cells. The “DDATHF-Glun, N = 3” value (CCRF-CEM cells [2]; −Z) was 9.2 ± 0.9 pmol/10^7 cells, the “DDATHF-Glun, N = 4” value (CCRF-CEM cells [2]; −Z) was 13.3 ± 2.1 pmol/10^7 cells and the “DDATHF-Glun, N = 5” value (CCRF-CEM cells [2]; −Z) was 28.1 ± 2.1 pmol/10^7 cells. The “DDATHF-Glun, N = 6” value (CCRF-CEM cells [2]; −Z) was 30.5 ± 0.9 pmol/10^7 cells, the “DDATHF-Glun, Total” value (CCRF-CEM cells [2]; −Z) was 100.8 pmol/10^7 cells and the “DDATHF-Glun, Total N ≧ 3” value (CCRF-CEM cells [2]; −Z) was 81.1 pmol/10^7 cells.

`Cc1nc2ccc3ccc(CNc4ccc5c(c4)CN([C@@H](CCC(=O)O)C(=O)O)C5=O)cc3c2c(=O)[nH]1` [BW1843U89, (S)-2-(5-(((1,2-dihydro-3-methyl-1-oxobenzo(F)quinazolin-9-yl)methyl)-amino)-1-oxo-2-isoindolinyl)glutaric acid] was tested, and the IC50 ([3]; +TMTX + Z, 10 min pre-incubation with 1 μM TMTX and 0.5 mM Z (Z potentiated influx)) was 1300 ± 400 nM and the IC50 ([3]; +TMTX, 10 min pre-incubation with 1 μM TMTX alone (inhibition of the RFC)) was 1000 ± 100 nM.

`NC(=O)CC[C@H](N)C(=O)O` [glutamine] was tested, and the “Ability to potentiate [3H]MTX uptake” value (CCRF-CEM cells [1]) was “unable to potentiate”.
